ChEMBL document CHEMBL1201862, “PubChem BioAssay data set” (2004)
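48-hour exposure; five concentrations; linearly interpolated endpoints. The concentration for 50% growth inhibition is given as GI50.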 The source made the active and inactive calls. Cut-off read from the data, not from the text of the source: active = GI50 up to about 1.1 µM and inactive = higher.

Columns and labels:
Assay in all cases: NCI tumour cell line growth inhibition, 48 h
[1] = tested on: UACC-62
[2] = tested on: SK-OV-3
[3] = tested on: NCI-H460
[4] = tested on: HCT-15
[5] = tested on: NCI-H226
[6] = tested on: SR
[7] = tested on: OVCAR-8
[8] = tested on: OVCAR-4
[9] = tested on: UO-31
[10] = tested on: SF-268
[11] = tested on: RPMI-8226
[12] = tested on: LOX IMVI
[13] = tested on: SF-295
[14] = tested on: HOP-62
[15] = tested on: UACC-257
[16] = tested on: NCI-H23
[17] = tested on: RXF 393

SMILES | GI50 [1] | GI50 [2] | GI50 [3] | GI50 [4] [µM] | GI50 [5] | GI50 [6] | GI50 [7] | GI50 [8] | GI50 [9] | GI50 [10] | GI50 [11] | GI50 [12] | GI50 [13] | GI50 [14] | GI50 [15] | GI50 [16] | GI50 [17]
CCOC(=O)CNC(=O)c1nc[nH]c1/N=N/N(C)C | > 100 µM (inactive) | > 100 µM (inactive) | > 100 µM (inactive) | > 100 | > 100 µM (inactive) | > 100 µM (inactive) | > 100 µM (inactive) | > 100 µM (inactive) | > 100 µM (inactive) | > 100 µM (inactive) | > 100 µM (inactive) | > 100 µM (inactive) | > 100 µM (inactive) | > 100 µM (inactive) | > 100 µM (inactive) | > 100 µM (inactive) | –
CC1=C/C(=C2/N=C(N(C)C)SS2)C(C)=N1.[O-][Cl+3]([O-])([O-])O | – | > 100 µM (inactive) | > 100 µM (inactive) | > 100 | > 100 µM (inactive) | > 100 µM (inactive) | > 100 µM (inactive) | 71.3 µM (inactive) | > 100 µM (inactive) | > 100 µM (inactive) | > 100 µM (inactive) | 37.3 µM (inactive) | > 100 µM (inactive) | > 100 µM (inactive) | > 100 µM (inactive) | 6.47 µM (inactive) | > 100 µM (inactive)
CC(=O)NNc1nc(C)c(C(=O)/C=C/c2ccc(NC(C)=O)cc2)s1 | > 100 µM (inactive) | > 100 µM (inactive) | > 100 µM (inactive) | > 100 | – | – | > 100 µM (inactive) | – | > 100 µM (inactive) | > 100 µM (inactive) | > 100 µM (inactive) | > 100 µM (inactive) | > 100 µM (inactive) | > 100 µM (inactive) | 98.6 µM (inactive) | > 100 µM (inactive) | > 100 µM (inactive)
N=C(N)NS(=O)(=O)c1ccc(NC(=O)c2cccn3c(=O)c4ccccc4nc23)cc1 | 32.9 µM (inactive) | > 100 µM (inactive) | 53.1 µM (inactive) | – | 44.8 µM (inactive) | 24.5 µM (inactive) | 84.5 µM (inactive) | 41.6 µM (inactive) | 55.1 µM (inactive) | > 100 µM (inactive) | 24.9 µM (inactive) | 33.7 µM (inactive) | 85.5 µM (inactive) | > 100 µM (inactive) | 19.7 µM (inactive) | 38 µM (inactive) | 62.8 µM (inactive)
COc1ccc(OC)c2c(C(=O)O)c(Cc3ccccc3)ccc12 | > 100 µM (inactive) | > 100 µM (inactive) | > 100 µM (inactive) | > 100 | > 100 µM (inactive) | > 100 µM (inactive) | > 100 µM (inactive) | > 100 µM (inactive) | > 100 µM (inactive) | > 100 µM (inactive) | – | > 100 µM (inactive) | > 100 µM (inactive) | > 100 µM (inactive) | > 100 µM (inactive) | > 100 µM (inactive) | > 100 µM (inactive)
C(=C\c1cc(CCc2nc3ccccc3[nH]2)n[nH]1)/c1ccccc1 | > 100 µM (inactive) | > 100 µM (inactive) | > 100 µM (inactive) | > 100 | > 100 µM (inactive) | > 100 µM (inactive) | > 100 µM (inactive) | > 100 µM (inactive) | > 100 µM (inactive) | > 100 µM (inactive) | > 100 µM (inactive) | > 100 µM (inactive) | > 100 µM (inactive) | > 100 µM (inactive) | > 100 µM (inactive) | > 100 µM (inactive) | > 100 µM (inactive)
CCCCCCCCCCCCOC(=S)NC | 17.1 µM (inactive) | 27 µM (inactive) | 18.5 µM (inactive) | 17.8 | 4.25 µM (inactive) | 14.1 µM (inactive) | 18.6 µM (inactive) | 24.1 µM (inactive) | 19 µM (inactive) | 20.2 µM (inactive) | 16.9 µM (inactive) | 14.1 µM (inactive) | 25.9 µM (inactive) | 22.2 µM (inactive) | 20.3 µM (inactive) | 20.4 µM (inactive) | 16.6 µM (inactive)
CCN(CC)CCC(=O)/C=C/c1ccc(C)cc1 | 16.6 µM (inactive) | 20.7 µM (inactive) | 15.7 µM (inactive) | 12.5 | 17.1 µM (inactive) | 6.78 µM (inactive) | 13.2 µM (inactive) | 18.4 µM (inactive) | 16.2 µM (inactive) | 15.8 µM (inactive) | 3.99 µM (inactive) | 4.53 µM (inactive) | 18.1 µM (inactive) | 25.7 µM (inactive) | 13.9 µM (inactive) | 17.1 µM (inactive) | 15.3 µM (inactive)
C/C(CC(=O)NCCc1ccccc1)=N\NC(=O)C[n+]1ccccc1 | > 100 µM (inactive) | > 100 µM (inactive) | > 100 µM (inactive) | > 100 | > 100 µM (inactive) | – | > 100 µM (inactive) | – | > 100 µM (inactive) | > 100 µM (inactive) | > 100 µM (inactive) | > 100 µM (inactive) | > 100 µM (inactive) | > 100 µM (inactive) | > 100 µM (inactive) | > 100 µM (inactive) | > 100 µM (inactive)
COC1C=C(Nc2cccc(Cl)c2)C(=O)C1 (centres undefined) | 60 µM (inactive) | 48.8 µM (inactive) | 44.4 µM (inactive) | – | 36.4 µM (inactive) | 58.3 µM (inactive) | 96.2 µM (inactive) | > 100 µM (inactive) | 41.2 µM (inactive) | 45.8 µM (inactive) | – | > 100 µM (inactive) | 54 µM (inactive) | > 100 µM (inactive) | > 100 µM (inactive) | 41.5 µM (inactive) | 23.4 µM (inactive)
CCOC(=O)NC1C2CC(=O)C(O2)C1OCc1ccccc1 (centres undefined) | > 100 µM (inactive) | > 100 µM (inactive) | > 100 µM (inactive) | > 100 | > 100 µM (inactive) | – | – | > 100 µM (inactive) | 78 µM (inactive) | > 100 µM (inactive) | > 100 µM (inactive) | > 100 µM (inactive) | > 100 µM (inactive) | > 100 µM (inactive) | > 100 µM (inactive) | > 100 µM (inactive) | > 100 µM (inactive)
O=c1cc(-c2ccccc2)[nH]c2c(Cl)cccc12 | 4.55 µM (inactive) | – | 8.2 µM (inactive) | 5.09 | 9.55 µM (inactive) | 7.53 µM (inactive) | 16.6 µM (inactive) | 18.9 µM (inactive) | 34.2 µM (inactive) | 38.4 µM (inactive) | 17 µM (inactive) | 9.35 µM (inactive) | 20.1 µM (inactive) | 7.26 µM (inactive) | 78.3 µM (inactive) | 63.2 µM (inactive) | 15.7 µM (inactive)
COc1cc2c(cc1OC)C1[C@@H](c3ccccc3)OCN1CC2 (some centres undefined) | > 100 µM (inactive) | > 46 µM (inactive) | > 100 µM (inactive) | > 90.6 | > 100 µM (inactive) | > 88.7 µM (inactive) | > 100 µM (inactive) | > 100 µM (inactive) | > 100 µM (inactive) | > 100 µM (inactive) | 44.4 µM (inactive) | > 96.2 µM (inactive) | > 100 µM (inactive) | > 100 µM (inactive) | > 100 µM (inactive) | > 100 µM (inactive) | > 100 µM (inactive)
CN(C)c1ccc(/C=C2\N=C(c3ccc(N)cc3)OC2=O)cc1 | > 100 µM (inactive) | > 100 µM (inactive) | > 100 µM (inactive) | > 100 | > 100 µM (inactive) | – | > 100 µM (inactive) | > 100 µM (inactive) | > 100 µM (inactive) | > 100 µM (inactive) | > 100 µM (inactive) | > 100 µM (inactive) | > 100 µM (inactive) | > 100 µM (inactive) | > 100 µM (inactive) | > 100 µM (inactive) | –
N#CC(C(=O)CCC(=O)Nc1ccc(Cl)cc1)c1ccccc1Cl (centres undefined) | 16 µM (inactive) | > 100 µM (inactive) | > 100 µM (inactive) | 21 | > 100 µM (inactive) | – | > 100 µM (inactive) | > 100 µM (inactive) | > 100 µM (inactive) | 32.1 µM (inactive) | > 100 µM (inactive) | – | > 100 µM (inactive) | – | > 100 µM (inactive) | 93.1 µM (inactive) | –
Cc1cccc2c3ccc4c(c3n(C)c12)C(=O)C=CC4=O | 59.7 µM (inactive) | > 100 µM (inactive) | – | – | > 100 µM (inactive) | 29.3 µM (inactive) | 89.1 µM (inactive) | > 100 µM (inactive) | 28.9 µM (inactive) | > 100 µM (inactive) | 32.8 µM (inactive) | – | > 100 µM (inactive) | > 100 µM (inactive) | > 100 µM (inactive) | 18.6 µM (inactive) | –
N#CC(C(=O)CCC(=O)Nc1ccc(Cl)c(Cl)c1)c1ccccc1 (centres undefined) | > 100 µM (inactive) | – | – | > 100 | > 100 µM (inactive) | – | > 100 µM (inactive) | > 100 µM (inactive) | > 100 µM (inactive) | > 100 µM (inactive) | > 100 µM (inactive) | – | > 100 µM (inactive) | > 100 µM (inactive) | > 100 µM (inactive) | > 100 µM (inactive) | > 100 µM (inactive)
O=C1CC23CCCCCCCCCCC2(C1)CC(=O)C3 (centres undefined) | – | 16.8 µM (inactive) | 34.7 µM (inactive) | 27.3 | 26.5 µM (inactive) | 19.9 µM (inactive) | 31.2 µM (inactive) | – | 20.8 µM (inactive) | 51.9 µM (inactive) | 19.4 µM (inactive) | – | 35.3 µM (inactive) | – | 34.8 µM (inactive) | 32.1 µM (inactive) | 25.4 µM (inactive)
